Reference: publication PMC7158045 (BMC Plant Biology, 2020)

Columns and labels:
Assay in all cases: biochemical
[1] = target: T1, ZmDRIK1-R187-P492 (Zea mays, UniProt C0P4K9); details: read-out: dTm B, DSF, Boltzmann fit, 0.1% DMSO
T1 construct: kinase domain, R187-P492
T1 sequence (C0P4K9 1-514): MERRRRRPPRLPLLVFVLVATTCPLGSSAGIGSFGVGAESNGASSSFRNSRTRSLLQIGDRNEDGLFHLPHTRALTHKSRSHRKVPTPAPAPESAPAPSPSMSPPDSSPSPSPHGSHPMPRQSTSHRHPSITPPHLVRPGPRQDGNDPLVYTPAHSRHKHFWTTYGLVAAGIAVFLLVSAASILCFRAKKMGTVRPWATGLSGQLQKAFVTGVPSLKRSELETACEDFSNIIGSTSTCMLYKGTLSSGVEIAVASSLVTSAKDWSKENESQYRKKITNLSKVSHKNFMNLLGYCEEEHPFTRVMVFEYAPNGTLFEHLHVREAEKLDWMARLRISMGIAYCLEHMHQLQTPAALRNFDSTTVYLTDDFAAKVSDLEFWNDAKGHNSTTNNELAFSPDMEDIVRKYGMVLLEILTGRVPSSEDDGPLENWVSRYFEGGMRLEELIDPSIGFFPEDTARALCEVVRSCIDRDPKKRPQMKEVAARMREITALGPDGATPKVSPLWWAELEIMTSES

[2] = target: T2, ZmDRIK1-K217-S514 (Zea mays, UniProt C0P4K9); details: read-out: dTm B, sheet ZmDRIK1-K217-S514;; DSF, Boltzmann fit, 0.1% DMSO
T2 construct: kinase domain, K217-S514
T2 sequence (C0P4K9 1-514): T1 sequence (C0P4K9 1-514)

[3] = target: T3, ZmDRIK1 (DROUGHT RESPONSIVE INACTIVE KINASE 1), kinase domain (Zea mays, UniProt C0P4K9); details: read-out: dTm B, sheet ZmDRIK1-R187-S514;; DSF, Boltzmann fit, 0.1% DMSO
T3 construct: gene ZEAMMB73_Zm00001d028770; ZmDRIK1-KD R187-S514 (kinase domain)
T3 sequence (C0P4K9 187-514): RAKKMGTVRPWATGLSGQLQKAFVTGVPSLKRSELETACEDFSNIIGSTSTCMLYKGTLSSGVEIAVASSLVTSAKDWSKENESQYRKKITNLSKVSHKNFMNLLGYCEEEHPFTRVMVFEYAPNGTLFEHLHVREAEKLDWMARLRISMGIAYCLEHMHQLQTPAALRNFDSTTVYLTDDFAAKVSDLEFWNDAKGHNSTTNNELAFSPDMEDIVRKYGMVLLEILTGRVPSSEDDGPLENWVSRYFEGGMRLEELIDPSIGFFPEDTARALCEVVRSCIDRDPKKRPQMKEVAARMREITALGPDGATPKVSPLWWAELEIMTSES

[4] = target: T4, ZmDRIK1-K217-P492 (Zea mays, UniProt C0P4K9); details: read-out: dTm B, sheet ZmDRIK1-K217-P492;; DSF, Boltzmann fit, 0.1% DMSO
T4 construct: kinase domain, K217-P492
T4 sequence (C0P4K9 1-514): T1 sequence (C0P4K9 1-514)

ΔTm at 10 µM [1] | ΔTm at 10 µM [2] | ΔTm at 10 µM [3] | ΔTm at 10 µM [4] | Structure (SMILES)
-0.0311 °C | -0.13 °C | -0.807 °C | -0.672 °C | O=C(c1ccc(/C=C/c2n[nH]c3ccccc23)cc1)N1CCNCC1 [KW-2449]
-0.338 °C | -0.346 °C | -0.49 °C | -0.496 °C | O=C(Cc1ccc(-c2ccc(OCCN3CCOCC3)cc2)cn1)NCc1ccccc1 [KX2-391]
0.533 °C | 0.865 °C | -0.172 °C | 0.0733 °C | COc1ccccc1-c1cc(Nc2cccc(CS(N)(=O)=O)c2)ncn1 [LDC000067]
-0.522 °C | -0.431 °C | -0.744 °C | -1.23 °C | Cc1cc(Nc2ncc(Cl)c(Nc3ccccc3S(=O)(=O)C(C)C)n2)c(OC(C)C)cc1C1CCNCC1 [LDK378]
-0.0828 °C | -0.184 °C | -0.881 °C | -0.874 °C | O=c1cc(N2CCOCC2)oc2c(-c3ccccc3)cccc12 [LY294002]
-0.267 °C | -0.619 °C | -0.95 °C | -0.453 °C | CC(C)(C)Cn1c(N)nc2ccc(-c3[nH]c(C(C)(C)C)nc3-c3ccc(F)cc3)nc21 [LY2228820]
-0.548 °C | -0.525 °C | -0.608 °C | -0.992 °C | Cc1cnc(NC(=O)Nc2cc(Br)c(C)cc2OC[C@@H]2CNCCO2)cn1 [LY2603618]
-0.165 °C | -0.0976 °C | -0.894 °C | -0.85 °C | Cc1cc(Nc2cc(CN3CCOCC3)c3nc(C)c(Cc4ccc(Cl)cc4F)n3n2)n[nH]1 [LY2784544]
-0.433 °C | -0.201 °C | -0.878 °C | -0.986 °C | CCN1CCN(Cc2ccc(Nc3ncc(F)c(-c4cc(F)c5nc(C)n(C(C)C)c5c4)n3)nc2)CC1 [LY2835219]
-0.406 °C | -0.299 °C | -1.04 °C | -1.02 °C | COc1cc2nccc(Oc3ccc(NC(=O)NC4CC4)c(Cl)c3)c2cc1C(N)=O [Lenvatinib (E7080)]
-0.414 °C | -0.66 °C | -0.711 °C | -4.15 °C | Cc1ccc(F)c(NC(=O)Nc2ccc(-c3cccc4[nH]nc(N)c34)cc2)c1 [Linifanib (ABT-869)]
-0.242 °C | -0.464 °C | -0.594 °C | -0.577 °C | Cc1c(F)cc(C(=O)NC2CC2)cc1-c1ccc(C(=O)NCC(C)(C)C)cn1 [Losmapimod (GW856553X)]
-0.189 °C | -0.461 °C | -0.978 °C | -1.3 °C | Cn1cnc2c(F)c(Nc3ccc(Br)cc3F)c(C(=O)NOCCO)cc21 [MEK162 (ARRY-162)]
-0.104 °C | -0.181 °C | -1.02 °C | -0.178 °C | NC1(c2ccc(-c3nc4ccn5c(=O)[nH]nc5c4cc3-c3ccccc3)cc2)CCC1 [MK-2206 2HCl]
-0.282 °C | -0.299 °C | -1.14 °C | -0.754 °C | O=C(O)[C@]1(Cc2cccc(Nc3nccs3)n2)CC[C@@H](Oc2cccc(Cl)c2F)CC1 [MK-5108 (VX-689)]
0.983 °C | 0.891 °C | 0.487 °C | 0.174 °C | O=C(c1cccc(Cl)c1F)N1CCN(Cc2cccc(Nc3nccs3)n2)CC1 [MK-8745]
-0.226 °C | -0.293 °C | -0.736 °C | -0.951 °C | Cn1cc(-c2cnn3c(N)c(Br)c([C@@H]4CCCNC4)nc23)cn1 [MK-8776 (SCH 900776)]
-0.341 °C | -0.583 °C | -0.958 °C | -1.36 °C | O=C(O)c1ccc(Nc2ncc3c(n2)-c2ccc(Cl)cc2C(c2c(F)cccc2F)=NC3)cc1 [MLN8054]

ΔTm at 10 µM [1] | ΔTm at 10 µM [2] | ΔTm at 10 µM [3] | ΔTm at 10 µM [4] | Structure (SMILES)
-0.246 °C | -0.217 °C | -0.818 °C | -0.773 °C | Cc1ccc(NC(=O)c2ccc(CN3CCN(C)CC3)cc2)cc1Nc1nc(-c2cccnc2)cs1 [Masitinib (AB1010)]
-0.101 °C | -0.233 °C | -0.178 °C | -0.0433 °C | CNC(=O)c1nn(C)c2c1C(C)(C)Cc1cnc(Nc3ccc(N4CCN(C)CC4)cc3)nc1-2 [Milciclib (PHA-848125)]
-0.24 °C | -0.221 °C | -0.808 °C | -1.01 °C | CC1(C)CNc2cc(NC(=O)c3cccnc3NCc3ccncc3)ccc21 [Motesanib Diphosphate (AMG-706)]
-0.156 °C | -0.334 °C | -0.964 °C | -0.803 °C | FC(F)(F)c1ccc(/C=C/c2nc(COc3ccc(CCCCn4ccnn4)cc3)co2)cc1 [Mubritinib (TAK 165)]
-0.749 °C | -0.517 °C | -1.15 °C | -1.1 °C | CN1CCN(c2ccc(OC(F)(F)F)c(Nc3ncc4c(n3)-c3c(c(C(N)=O)nn3CCO)CC4)c2)CC1 [NMS-P937 (NMS1286937)]
-0.128 °C | -0.555 °C | -0.461 °C | -0.485 °C | CCN(CC)CCCC(C)Nc1nc(C)cc(Nc2ccc3nc(C)cc(N)c3c2)n1 (stereo not shown) [NSC 23766]
-0.309 °C | -1.59 °C | -0.875 °C | -1.94 °C | O=c1cc(N2CCOCC2)oc2c(-c3cccc4c3sc3ccccc34)cccc12 [NU7441 (KU-57788)]
-0.332 °C | -0.366 °C | -0.841 °C | -1.08 °C | Nc1ncnc2c1c(-c1cccc(OCc3ccccc3)c1)cn2[C@H]1C[C@@H](CN2CCC2)C1 [NVP-AEW541]
-0.0503 °C | 0.0902 °C | -2.05 °C | -0.914 °C | Cc1ccc(C(=O)Nc2cccc(C(F)(F)F)c2)cc1Nc1nc(-c2cccnc2)nc2c1cnn2C [NVP-BHG712]
-0.0846 °C | -0.602 °C | -0.913 °C | -0.999 °C | Fc1cc(-c2cccc3ncc(-c4cnn(C5CCNCC5)c4)nc23)cc(F)c1CN1CCOCC1 [NVP-BSK805 2HCl]
-0.283 °C | -0.37 °C | -0.84 °C | -0.593 °C | Cn1cc(-c2ccc3ncc(Cc4ccc5ncccc5c4)n3n2)cn1 [NVP-BVU972]
-5.14 °C | -2.84 °C | -19.8 °C | -9.25 °C | Cc1cn(-c2cc(NC(=O)c3ccc(C)c(Nc4nccc(-c5cccnc5)n4)c3)cc(C(F)(F)F)c2)cn1 [Nilotinib (AMN-107)]
-0.154 °C | -0.223 °C | -0.677 °C | -1.32 °C | COC(=O)c1ccc2c(c1)NC(=O)/C2=C(\Nc1ccc(N(C)C(=O)CN2CCN(C)CC2)cc1)c1ccccc1 [Nintedanib (BIBF 1120)]
-0.418 °C | -0.417 °C | -0.416 °C | -1.03 °C | COc1cccc2cc(-c3nc([C@H]4CC[C@H](C(=O)O)CC4)n4ncnc(N)c34)[nH]c12 [OSI-027]
-0.201 °C | -0.412 °C | -1.2 °C | -0.652 °C | C#Cc1cccc(Nc2ncnc3cc(OCCOC)c(OCCO)cc23)c1 [OSI-420]
-0.547 °C | -0.681 °C | -0.97 °C | -0.53 °C | C[C@]1(O)C[C@@H](c2nc(-c3ccc4ccc(-c5ccccc5)nc4c3)c3c(N)nccn32)C1 [OSI-906 (Linsitinib)]
-3.67 °C | -5.53 °C | -0.0551 °C | -0.971 °C | O=C(Nc1ccc(OC(F)(F)F)cc1)c1sccc1NCc1ccnc2ccccc12 [OSI-930]
-0.274 °C | -0.359 °C | -0.748 °C | -0.275 °C | CN1CCC(c2c(O)cc(O)c3c(=O)cc(-c4ccccc4Cl)oc23)C1CO (stereo not shown) [P276-00]

Structure (SMILES) | ΔTm at 10 µM [1] | ΔTm at 10 µM [2] | ΔTm at 10 µM [3] | ΔTm at 10 µM [4]
NCC(=O)Nc1ccc(-n2nc(C(F)(F)F)cc2-c2ccc3c(ccc4ccccc43)c2)cc1 [OSU-03012 (AR-12)] | -1.36 °C | 0.388 °C | -0.382 °C | -8.69 °C
